Measured values reported in US10166216B2 (Rigel Pharmaceuticals, Inc., priority 2006, dated 2019).

The compounds below were run against Axl (Homo sapiens (Human), UniProt P30530) (assay: Phospho-Akt in-cell Western assay (Axl-antibody cross-linking stimulation)). Settings: inhibition of Axl activity, Hela cells, phospho-Akt readout; Table 1, formula (Ia1).
Assay type: cell-based
Procedure, shortened: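 HeLa cells on poly-L-lysine, starved 24 hrs with Axl/Fc, pre-treated with compound 1 hr at 37° C., then stimulated 5 min with Axl primary/secondary antibody cluster. Fixed cells probed for phospho-Akt by chemiluminescent in-cell Western; signal normalized to crystal violet cell number.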

Sequence of Axl (P30530 26-894): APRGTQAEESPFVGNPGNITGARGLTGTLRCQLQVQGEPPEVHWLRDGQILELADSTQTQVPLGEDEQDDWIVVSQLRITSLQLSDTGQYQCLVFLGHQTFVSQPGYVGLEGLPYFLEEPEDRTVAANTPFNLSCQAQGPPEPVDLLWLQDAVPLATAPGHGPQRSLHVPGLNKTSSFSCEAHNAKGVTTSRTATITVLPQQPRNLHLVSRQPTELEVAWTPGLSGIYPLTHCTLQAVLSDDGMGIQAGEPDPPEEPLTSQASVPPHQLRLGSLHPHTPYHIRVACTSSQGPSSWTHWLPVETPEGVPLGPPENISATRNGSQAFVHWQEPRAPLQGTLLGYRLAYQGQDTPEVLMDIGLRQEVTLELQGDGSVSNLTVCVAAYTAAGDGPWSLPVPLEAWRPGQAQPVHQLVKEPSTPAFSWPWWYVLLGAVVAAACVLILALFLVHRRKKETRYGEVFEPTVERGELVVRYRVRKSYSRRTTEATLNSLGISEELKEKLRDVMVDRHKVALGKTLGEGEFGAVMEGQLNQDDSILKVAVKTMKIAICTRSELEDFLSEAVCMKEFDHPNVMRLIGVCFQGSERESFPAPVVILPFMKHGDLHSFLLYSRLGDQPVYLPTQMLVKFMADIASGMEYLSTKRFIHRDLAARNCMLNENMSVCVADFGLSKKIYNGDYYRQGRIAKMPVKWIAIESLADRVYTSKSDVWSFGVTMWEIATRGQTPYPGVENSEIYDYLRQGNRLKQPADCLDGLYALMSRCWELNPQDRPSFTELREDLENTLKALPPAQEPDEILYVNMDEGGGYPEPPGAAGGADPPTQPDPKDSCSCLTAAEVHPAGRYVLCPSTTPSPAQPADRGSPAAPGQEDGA

IC50 [nM]	SMILES
< 1000	Nc1nc(Nc2ccc(OCCN3CCCC3)cc2)nn1-c1nccc2ccccc12 [Compound 50, 1-(isoquinolin-1-yl)-N^3-(4-(2-(pyrrolidin-1-yl)ethoxy)phenyl)-1H-1,2,4-triazole-3,5-diamine]
< 1000	COc1cc2ccnc(-n3nc(Nc4ccc(OCCN5CCCC5)cc4)nc3N)c2cc1OC [Compound 77, 1-(6,7-dimethoxyisoquinolin-1-yl)-N^3-(4-(2-(pyrrolidin-1-yl)ethoxy)phenyl)-1H-1,2,4-triazole-3,5-diamine]
1000 to 10000	Nc1nc(Nc2ccc(OCCN3CCCC3)cc2)nn1-c1cccc(Cl)n1 [Compound 16, 1-(6-chloropyridin-2-yl)-N^3-(4-(2-(pyrrolidin-1-yl)ethoxy)phenyl)-1H-1,2,4-triazole-3,5-diamine]

Same assay, conditions: inhibition of Axl activity, Hela cells, phospho-Akt readout; Table 4, formula (Ib2)

IC50 [nM]	SMILES
< 1000	COc1cc2ncnc(-n3nc(N)nc3Nc3ccc(N4CCN(C5CC6CCC5C6)CC4)cc3)c2cc1OC (stereo not drawn) [Compound 100, N^5-(4-(4-(bicyclo[2.2.1]heptan-2-yl)piperazin-1-yl)phenyl)-1-(6,7-dimethoxyquinazolin-4-yl)-1H-1,2,4-triazole-3,5-diamine]
< 1000	CN1CCN(c2ccc(Nc3nc(N)nn3-c3ncnc4ccc(Cl)cc34)cc2)CC1 [Compound 86, 1-(6-chloroquinazolin-4-yl)-N^5-(4-(4-methylpiperazin-1-yl)phenyl)-1H-1,2,4-triazole-3,5-diamine]
> 20000	Nc1nc(Nc2ccc(N3CCN(C4CC5CCC4C5)CC3)cc2)n(-c2nc3ccccc3s2)n1 (stereo not drawn) [Compound 95, 1-(benzo[d]thiazol-2-yl)-N^5-(4-(4-(bicyclo[2.2.1]heptan-2-yl)piperazin-1-yl)phenyl)-1H-1,2,4-triazole-3,5-diamine]

Same assay, conditions: inhibition of Axl activity, Hela cells, phospho-Akt readout; Table 5, formula (Ia3)

IC50 [nM]	SMILES
> 20000	CC(=O)c1ccc(Nc2nc(N)n(-c3ccccc3F)n2)cc1 [Compound 147, 1-(4-(5-amino-1-(2-fluorophenyl)-1H-1,2,4-triazol-3-ylamino)phenyl)ethanone]
< 1000	Nc1nc(Nc2ccc(N3CCC(N4CCCC4)CC3)c(F)c2)nn1-c1cc(-c2ccccc2)ccn1 [Compound 259, 1-(4-phenylpyridin-2-yl)-N^3-(3-fluoro-4-(4-(pyrrolidin-1-yl)piperidin-1-yl)phenyl)-1H-1,2,4-triazole-3,5-diamine]
> 20000	CNC(=O)c1ccc(Nc2nc(NC)n(-c3ccccc3)n2)cc1 [Compound 246, 1-phenyl-N^3-(4-(methylaminocarbonyl)-phenyl)-N^5-methyl-1H-1,2,4-triazole-3,5-diamine]

Same assay, conditions: inhibition of Axl activity, Hela cells, phospho-Akt readout; Table 7, formula (Ia4)

IC50 [nM]	SMILES
< 1000	COc1cc2ncnc(-n3nc(Nc4ccc5c(c4)CCC(NC4CC6CCC4C6)CC5)nc3N)c2cc1OC (stereo not drawn) [Compound 223, 1-(6,7-dimethoxyquinazolin-4-yl)-N^3-(7-(N-bicyclo[2.2.1]heptan-2-yl)amino-6,7,8,9-tetrahydro-5H-benzo[7]annulene-2-yl)-1H-1,2,4-triazole-3,5-diamine]

Same assay, conditions: inhibition of Axl activity, phospho-Akt in-cell Western assay

IC50 [nM]	SMILES
> 20000	COc1cc2ncnc(-n3nc(Nc4ccc(N5CCN(C6CCCCCCC6)CC5)cc4)nc3N)c2cc1OC [Compound 112, N^3-(4-(4-cyclooctylpiperazin-1-yl)phenyl)-1-(6,7-dimethoxyquinazolin-4-yl)-1H-1,2,4-triazole-3,5-diamine]
< 1000	Nc1nc(Nc2ccc(N3CCN(C4CC5CCC4C5)CC3)c(F)c2)nn1-c1ncnc2ccsc12 (stereo not drawn) [Compound 195, 1-(thieno[3,2-d]pyrimdin-4-yl)-N^3-(3-fluoro-4-(4-(bicyclo[2.2.1]heptan-2-yl)-piperazin-1-yl)phenyl)-1H-1,2,4-triazole-3,5-diamine]
< 1000	Nc1nc(Nc2ccc(N3CCN(C4CCCCC4)CC3)c(Cl)c2)nn1-c1nccc2ccccc12 [Compound 91, N^3-(3-chloro-4-(4-cyclohexylpiperazin-1-yl)phenyl)-1-(isoquinolin-1-yl)-1H-1,2,4-triazole-3,5-diamine]
< 1000	COc1cc2ccnc(-n3nc(Nc4ccc(N5CCN(C6CCCCCC6)CC5)cc4)nc3N)c2cc1OC [Compound 126, N^3-(4-(4-cycloheptylpiperazin-1-yl)phenyl)-1-(6,7-dimethoxyisoquinolin-1-yl)-1H-1,2,4-triazole-3,5-diamine]
< 1000	Nc1nc(Nc2ccc(N3CCN(C4CCCC4)CC3)c(F)c2)nn1-c1nc2ccccc2c2ccccc12 [Compound 192, 1-(phenanthridin-6-yl)-N^3-(3-fluoro-4-(4-cyclopentylpiperazin-1-yl)phenyl)-1H-1,2,4-triazole-3,5-diamine]
< 1000	Nc1nc(Nc2ccc(N3CCN(C4CC5CCC4C5)CC3)cc2)nn1-c1ncnc2ccsc12 (stereo not drawn) [Compound 128, N^3-(4-(4-(bicyclo[2.2.1]heptan-2-yl)piperazin-1-yl)phenyl)-1-(thieno[3,2-d]pyrimidin-4-yl)-1H-1,2,4-triazole-3,5-diamine]
< 1000	Nc1nc(Nc2ccc(N3CCN(C4CC5CCC4C5)CC3)c(F)c2)nn1-c1ncnc2ccc(F)cc12 (stereo not drawn) [Compound 197, 1-(6-fluoroquinazolin-4-yl)-N^3-(3-fluoro-4-(4-(bicyclo[2.2.1]heptan-2-yl)-piperazin-1-yl)phenyl)-1H-1,2,4-triazole-3,5-diamine]
1000 to 10000	Nc1nc(Nc2ccc(N3CCN(C4CC5CCC4C5)CC3)cc2)nn1-c1cnc2ccccc2n1 (stereo not drawn) [Compound 97, N^3-(4-(4-(bicyclo[2.2.1]heptan-2-yl)piperazin-1-yl)phenyl)-1-(quinoxalin-2-yl)-1H-1,2,4-triazole-3,5-diamine]
< 1000	Cc1csc2c(-n3nc(Nc4ccc(N5CCN([C@H]6C[C@@H]7CC[C@H]6C7)[C@@H](C)C5)c(F)c4)nc3N)ncnc12 [Compound 251, 1-(7-methylthieno[3,2-d]pyrimidin-4-yl)-N^3-(3-fluoro-4-(3-(S)-methyl-4-((1S,2S,4R)-bicyclo[2.2.1]heptan-2-yl)piperazin-1-yl)phenyl)-1H-1,2,4-triazole-3,5-diamine]
1000 to 10000	Cc1nc(-n2nc(Nc3ccc(N4CCN(C5CC6CCC5C6)CC4)cc3)nc2N)c2c(C)c(C)sc2n1 (stereo not drawn) [Compound 137, N^3-(4-(4-(bicyclo[2.2.1]heptan-2-yl)piperazin-1-yl)phenyl)-1-(2,5,6-trimethylthieno[2,3-d]pyrimidin-4-yl)-1H-1,2,4-triazole-3,5-diamine]
< 1000	Cc1csc2c(-n3nc(Nc4ccc(N5CCN([C@H]6C[C@@H]7CC[C@H]6C7)CC5)c(F)c4)nc3N)ncnc12 [Compound 245, 1-(7-methylthieno[3,2-d]pyrimidin-4-yl)-N^3-(3-fluoro-4-(4-((1S,2S,4R)-bicyclo[2.2.1]heptan-2-yl)piperazin-1-yl)phenyl)-1H-1,2,4-triazole-3,5-diamine]
< 1000	COc1cc2cnc(-n3nc(Nc4ccc(N5CCN(C)CC5)cc4)nc3N)nc2cc1OC [Compound 180, 1-(6,7-dimethoxyquinazolin-2-yl)-N^3-(4-(4-methylpiperazin-1-yl)phenyl)-1H-1,2,4-triazole-3,5-diamine]
> 20000	COc1cc2ncnc(-n3nc(Nc4ccc(N5CCN(C6C7CC8CC(C7)CC6C8)CC5)cc4)nc3N)c2cc1OC (stereo not drawn) [Compound 111]
< 1000	COc1cc2ncnc(-n3nc(Nc4ccc(N5CCN(C6CCCCC6)CC5)c(F)c4)nc3N)c2cc1OC [Compound 122, N^3-(4-(4-cyclohexylpiperazin-1-yl)-3-fluorophenyl)-1-(6,7-dimethoxyquinazolin-4-yl)-1H-1,2,4-triazole-3,5-diamine]
